In US9079821B2, “Quinone based nitric oxide donating compounds” (NICOX S.A., priority 2011, dated 2015):
Read-outs that look alike come from different tables or passages of the source.

Experiments:
[1] = test system: lipid peroxidation of hepatic microsomal membranes; assay: In vitro antioxidant activity (TBARS test), Method B (2.5 μM FeSO4); format: biochemical, rat; details: inhibition of TBARS production, read-out: Antioxidant activity IC50 μM (CL 95%)
Procedure: The antioxidant properties of compounds (6) (disclosed in example 1) and compound (23) (disclosed in example 19) and reference antioxidant compounds were assessed after NADPH-induced lipidic peroxidation of membrane lipids in rat hepatocytes using the detection of 2-thiobarbituric acid reactive substances (TBARS) by visible spectroscopy. Hepatic microsomal membranes from male Wistar rats (200-250 g) were prepared by differential centrifugation (8000 g, 20 min; 120000 g, 1 h) in a HEPES/sucrose buffer (10 mM, 250 mM, pH 7.4) and stored at −80° C. Incubation was performed at 37° C. in a Tris-HCl/KCl (100 mM/150 mM, pH 7.4) containing microsomal membranes (2 mg prot/mL), sodium ascorbate (100 μM), and DMSO solutions of the tested compounds. Lipid peroxidation was initiated by adding ADP-FeCl3 and NADPH (Method A) or 2.5 μM FeSO4 (Method B) (as described by Boschi D. et al., J. Med. Chem. 2006, 49:2886-2897). Aliquots were taken from the incubation mixture at 5, 15, and 30 min and treated with trichloroacetic acid (TCA) 10% w/v. Lipid peroxidation was assessed by spectrophotometric (543 nm) determination of the TBARS consisting mainly of malondialdehyde (MDA). TBARS concentrations (expressed in nmol/mg protein) were obtained by interpolation with a MDA standard curve. […] IC50 values were calculated by nonlinear regression analysis.

[2] = test system: NADPH-induced lipidic peroxidation of membrane lipids (hepatic microsomal membranes); assay: In vitro antioxidant activity (TBARS test), Method A (ADP-FeCl3 and NADPH); format: biochemical, rat; details: inhibition of TBARS production after 30 min incubation, read-out: Antioxidant activity IC50 μM (CL 95%)
Procedure: The antioxidant properties of compounds (6) (disclosed in example 1) and compound (23) (disclosed in example 19) and reference antioxidant compounds were assessed after NADPH-induced lipidic peroxidation of membrane lipids in rat hepatocytes using the detection of 2-thiobarbituric acid reactive substances (TBARS) by visible spectroscopy.
Hepatic microsomal membranes from male Wistar rats (200-250 g) were prepared by differential centrifugation (8000 g, 20 min; 120000 g, 1 h) in a HEPES/sucrose buffer (10 mM, 250 mM, pH 7.4) and stored at −80° C. Incubation was performed at 37° C. in a Tris-HCl/KCl (100 mM/150 mM, pH 7.4) containing microsomal membranes (2 mg prot/mL), sodium ascorbate (100 μM), and DMSO solutions of the tested compounds. Lipid peroxidation was initiated by adding ADP-FeCl3 and NADPH (Method A) or 2.5 μM FeSO4 (Method B) (as described by Boschi D. et al., J. Med. Chem. 2006, 49:2886-2897). Aliquots were taken from the incubation mixture at 5, 15, and 30 min and treated with trichloroacetic acid (TCA) 10% w/v. Lipid peroxidation was assessed by spectrophotometric (543 nm) determination of the TBARS consisting mainly of malondialdehyde (MDA). TBARS concentrations (expressed in nmol/mg protein) were obtained by interpolation with a MDA standard curve. The antioxidant activity of tested compounds was evaluated as the percent inhibition of TBARS production with respect to control samples, using the values obtained after 30 min of incubation. IC50 values were calculated by nonlinear regression analysis.

[3] = test system: lipid peroxidation of hepatic microsomal membranes; details: Method B; values from Chegaev, K. et al. (footnotes a, b); read-out: Antioxidant activity IC50 μM (CL 95%); cited from earlier work

IC50 [2] [µM]	Structure (SMILES)	IC50 [3] [µM]	also measured
1.6	COC1=C(OC)C(=O)C(CCCCCCCCCCO)=C(C)C1=O [Idebenone, reference compound]	–	–
1.4	CC1=C(CCCCCCO[N+](=O)[O-])C(=O)c2ccccc2C1=O [Compound (23), 6-(3-methyl-1,4-dioxo-1,4-dihydronaphthalen-2-yl) hexyl nitrate]	–	–

The remaining lines, values behind:

Structure (SMILES)	IC50 [2] [µM]	IC50 [3] [µM]	also measured
O=C(O)/C=C/c1ccc(O)c(O)c1 [Caffeic acid]	–	–	IC50 [1]: 33 µM
CC1=NN(c2ccccc2)C(=O)C1 [Edavarone]	–	17	–
COc1ccc2[nH]cc(CCNC(C)=O)c2c1 [Melatonin]	–	476	–
